The target of this experiment is human PDE10A (UniProt Q9Y233). The experiment in a line: Measurement of PDE activity (recombinant enzyme, HTRF cAMP kit). In kind it is biochemical. The conditions noted are these: Table 1, substrate 20 nM for PDE10, 60 minutes at 29 C, read-out: IC50. The method, then: The recombinant PDE proteins are used in in vitro enzymatic reaction for measurement of PDE activity. These recombinant proteins, including PDE10A (human, rat and mouse PDE10) and isoforms of PDEs 1, 3, 4, and 5, were purchased from commercial vendor BPS Bioscience. The enzymatic activity of PDEs was determined by cAMP measurement kit from CisBio (IBA) using HTRF technology.
The PDE enzymatic reaction was carried out in assay buffer (20 mM Tris-HCl pH7.5, 10 mM MgCl2, 0.1% bovine serum albumin) containing enzyme and substrate. The PDE enzymes concentration ranged from 10 pM-250 pM, depending on each enzyme's specific activity. The substrate cyclic nucleotide (cAMP or cGMP) concentration used in the assay was 20 nM for PDE10, and 100 nM for other PDEs. The inhibitory effect of compound was determined by incubating various concentration of inhibitor in the enzymatic assay. Typically, compound was serial diluted in DMSO then further diluted in assay buffer. Next, the compound at varying concentration was mixed with PDE enzyme. The reaction was initiated by addition of cyclic nucleotide substrate, and incubated for 60 minutes at 29 C. The reaction was stopped by addition of lysis buffer from assay kit. The cAMP-d2 and anti-cAMP cryptate in the lysis buffer detected the level of cAMP left from the PDE hydrolysis reaction. The PDE activity is reversely correlated with the amount of cAMP left in the reaction and can be converted to the percent activity of an uninhibited control (100%). Thus, IC50 value of inhibitor can be obtained by plotting inhibitor concentration against PDE activity at that concentration.
Background: TR-FRET usually uses a lanthanide donor and a delayed reading to cut background.

The term IC50 denotes the concentration that gives 50% inhibition.

Chain of human PDE10A (Q9Y233 290-1055 limits assumed): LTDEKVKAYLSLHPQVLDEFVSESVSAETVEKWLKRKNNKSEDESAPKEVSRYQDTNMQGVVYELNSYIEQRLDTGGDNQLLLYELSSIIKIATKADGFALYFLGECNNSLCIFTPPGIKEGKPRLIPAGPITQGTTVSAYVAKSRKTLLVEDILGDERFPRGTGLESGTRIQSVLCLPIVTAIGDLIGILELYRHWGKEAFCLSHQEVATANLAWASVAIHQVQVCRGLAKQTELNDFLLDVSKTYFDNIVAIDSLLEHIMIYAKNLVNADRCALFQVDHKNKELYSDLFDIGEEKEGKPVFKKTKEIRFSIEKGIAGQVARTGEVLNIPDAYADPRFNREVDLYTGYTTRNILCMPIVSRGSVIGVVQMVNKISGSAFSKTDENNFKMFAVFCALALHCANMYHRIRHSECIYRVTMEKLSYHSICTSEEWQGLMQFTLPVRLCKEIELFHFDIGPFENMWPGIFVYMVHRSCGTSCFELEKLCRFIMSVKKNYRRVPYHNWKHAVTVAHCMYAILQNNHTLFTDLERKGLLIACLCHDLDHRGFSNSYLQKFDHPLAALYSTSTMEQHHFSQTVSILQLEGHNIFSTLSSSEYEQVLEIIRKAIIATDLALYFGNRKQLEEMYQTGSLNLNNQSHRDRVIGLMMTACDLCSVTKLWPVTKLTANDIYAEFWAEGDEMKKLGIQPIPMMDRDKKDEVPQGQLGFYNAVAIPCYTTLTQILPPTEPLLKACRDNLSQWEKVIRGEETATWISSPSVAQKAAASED

In the case of `O=c1c2c(N3CCOCC3)cccc2ccn1C1CC1c1ccc2ccccc2n1` (single isomer, unassigned) [Example 246b, anti (−) 8-morpholino-2-(2-(quinolin-2-yl)cyclopropyl)isoquinolin-1(2H)-one], the half-inhibitory concentration (IC50) was under 100 nM.

As for `O=c1c2c(N3CCC4(COC4)C3)cccc2ccn1C1CC1c1ccc2ccccc2n1` (single isomer, unassigned) [Example 258, anti (−) 2-(2-(quinolin-2-yl)cyclopropyl)-8-(2-oxa-6-azaspiro[3.4]octan-6-yl)isoquinolin-1(2H)-one], the IC50 is under 100 nM.

With `O=c1c2c(N3CC4COCC4C3)cccc2ccn1C1CC1c1ccc2ccccc2n1` (single isomer, unassigned) [Example 259, anti (−) 8-(dihydro-1H-furo[3,4-c]pyrrol-5(3H,6H,6aH)-yl)-2-(2-(quinolin-2-yl)cyclopropyl)isoquinolin-1(2H)-one], the half-maximal inhibitory concentration (IC50) was under 100 nM.

Take `O=c1c2c(N3CCC(F)(F)CC3)cccc2ccn1C1CC1c1ccc2ccccc2n1` (single isomer, unassigned) [Example 260, anti (−) 8-(4,4-difluoropiperidin-1-yl)-2-(2-(quinolin-2-yl)cyclopropyl)isoquinolin-1(2H)-one]: the 50% inhibitory concentration (IC50) was under 100 nM.

On to `COc1ccc(-c2cccc3ccn(C4CC4c4ccc5ccccc5n4)c(=O)c23)cc1` (single isomer, unassigned) [Example 270, anti (−) 8-(4-methoxyphenyl)-2-(2-(quinolin-2-yl)cyclopropyl)isoquinolin-1(2H)-one], for which the IC50 is under 100 nM.

`O=c1c2c(-c3cncnc3)cccc2c(Cl)cn1C1CC1c1ccc2ccccc2n1` (single isomer, unassigned) [Example 276, anti (−)-4-chloro-8-(pyrimidin-5-yl)-2-(2-(quinolin-2-yl)cyclopropyl)isoquinolin-1(2H)-one]: the IC50 is under 100 nM.

For the molecule `O=c1c2c(-c3ccncc3)cccc2ccn1C1CC1c1ccc2ccccc2n1` (single isomer, unassigned; (+)) [Example 222a, (+) 8-(pyridin-4-yl)-2-(2-(quinolin-2-yl)cyclopropyl)isoquinolin-1(2H)-one], the half-maximal inhibitory concentration (IC50) was under 100 nM.

Consider `O=c1c2c(NC3COC3)cccc2ccn1C1CC1c1ccc2ccccc2n1` (single isomer, unassigned; (+)) [Example 235a, (+) anti 8-(oxetan-3-ylamino)-2-(2-(quinolin-2-yl)cyclopropyl)isoquinolin-1(2H)-one], for which the IC50 is under 100 nM.

As to `O=c1c2c(-c3cccnc3)cccc2ccn1C1CC1c1ccc2ccccc2n1` (single isomer, unassigned; (+)) [Example 239a, (+) anti 8-(pyridin-3-yl)-2-(2-(quinolin-2-yl)cyclopropyl)isoquinolin-1(2H)-one], the concentration for half-maximal inhibition (IC50) lay in the range of 100 to 200 nM.

Turning to `O=c1c2c(-c3ccncc3)cccc2ccn1C1CC1c1ccc2ccccc2n1` (single isomer, unassigned; (-)) [Example 222b, (−) 8-(pyridin-4-yl)-2-(2-(quinolin-2-yl)cyclopropyl)isoquinolin-1(2H)-one], the half-inhibitory concentration (IC50) is under 100 nM.

As for `O=c1c2c(-c3cccnc3)cccc2ccn1C1CC1c1ccc2ccccc2n1` (single isomer, unassigned; (-)) [Example 239b, (−) anti 8-(pyridin-3-yl)-2-(2-(quinolin-2-yl)cyclopropyl)isoquinolin-1(2H)-one], the IC50 was under 100 nM.

On to `O=c1c2c(-c3ccncc3)csc2c(-c2ccncc2)nn1CCc1ccc2ccccc2n1` [Example 1, 3,7-Di(pyridin-4-yl)-5-[2-(quinolin-2-yl)ethyl]thieno[2,3-d]pyridazin-4(5H)-one], for which the IC50 was under 100 nM.

Consider `O=c1c2ccsc2c(-c2ccncc2)nn1CCc1ccc2ccccc2n1` [Example 2, 7-(Pyridin-4-yl)-5-[2-(quinolin-2-yl)ethyl]thieno[2,3-d]pyridazin-4(5H)-one], for which the IC50 is under 100 nM.

As to `O=c1c2c(-c3ccncc3)csc2cnn1CCc1ccc2ccccc2n1` [Example 3, 3-(Pyridin-4-yl)-5-[2-(quinolin-2-yl)ethyl]thieno[2,3-d]pyridazin-4(5H)-one], the IC50 is under 100 nM.

Take `O=c1c2c(-c3ccncc3)csc2c(-c2ccncc2)nn1CCc1ccccn1` [Example 5, 3,7-Di(pyridin-4-yl)-5-[2-(pyridin-2-yl)ethyl]thieno[2,3-d]pyridazin-4(5H)-one]: the IC50 was under 100 nM.

As to `Cc1ccc(-c2csc3cnn(CCc4ccc5ccccc5n4)c(=O)c23)cc1` [Example 7, 3-(4-methylphenyl)-5-[2-(quinolin-2-yl)ethyl]thieno[2,3-d]pyridazin-4(5H)-one], the concentration for half-maximal inhibition (IC50) is 200 to 500 nM.

Regarding `CC(C)c1ccc(-c2csc3cnn(CCc4ccc5ccccc5n4)c(=O)c23)cc1` [Example 8, 3-[4-(propan-2-yl)phenyl]-5-[2-(quinolin-2-yl)ethyl]thieno[2,3-d]pyridazin-4(5H)-one], the half-maximal inhibitory concentration (IC50) is under 100 nM.

Regarding `N#Cc1ccc(-c2csc3cnn(CCc4ccc5ccccc5n4)c(=O)c23)cc1` [Example 10, 4-{4-oxo-5-[2-(quinolin-2-yl)ethyl]-4,5-dihydrothieno[2,3-d]pyridazin-3-yl}benzonitrile], the IC50 is under 100 nM.

Take `COc1ccc(-c2csc3cnn(CCc4ccc5ccccc5n4)c(=O)c23)cc1` [Example 11, 3-(4-methoxyphenyl)-5-[2-(quinolin-2-yl)ethyl]thieno[2,3-d]pyridazin-4(5H)-one]: the half-maximal inhibitory concentration (IC50) was 100 to 200 nM.

Take `O=c1c2c(-c3ccc(F)cc3)csc2cnn1CCc1ccc2ccccc2n1` [Example 12, 3-(4-fluorophenyl)-5-[2-(quinolin-2-yl)ethyl]thieno[2,3-d]pyridazin-4(5H)-one]: the IC50 is under 100 nM.

As to `N#CCc1ccc(-c2csc3cnn(CCc4ccc5ccccc5n4)c(=O)c23)cc1` [Example 15, (4-{4-oxo-5-[2-(quinolin-2-yl)ethyl]-4,5-dihydrothieno[2,3-d]pyridazin-3-yl}phenyl)acetonitrile], the IC50 is 200 to 500 nM.

For the molecule `O=c1c2c(-c3ccc(O)cc3)csc2cnn1CCc1ccc2ccccc2n1` [Example 16, 3-(4-hydroxyphenyl)-5-[2-(quinolin-2-yl)ethyl]thieno[2,3-d]pyridazin-4(5H)-one], the IC50 is under 100 nM.

On to `O=c1c2c(-c3ccccc3Cl)csc2cnn1CCc1ccc2ccccc2n1` [Example 17, 3-(2-chlorophenyl)-5-[2-(quinolin-2-yl)ethyl]thieno[2,3-d]pyridazin-4(5H)-one], for which the half-maximal inhibitory concentration (IC50) was in the range of 100 to 200 nM.

Take `Cc1ccccc1-c1csc2cnn(CCc3ccc4ccccc4n3)c(=O)c12` [Example 18, 3-(2-methylphenyl)-5-[2-(quinolin-2-yl)ethyl]thieno[2,3-d]pyridazin-4(5H)-one]: the IC50 fell in the range of 200 to 500 nM.

Consider `O=c1c2c(-c3ccccc3F)csc2cnn1CCc1ccc2ccccc2n1` [Example 20, 3-(2-fluorophenyl)-5-[2-(quinolin-2-yl)ethyl]thieno[2,3-d]pyridazin-4(5H)-one], for which the 50% inhibitory concentration (IC50) was under 100 nM.

`O=c1c2c(-c3ccccc3O)csc2cnn1CCc1ccc2ccccc2n1` [Example 23, 3-(2-hydroxyphenyl)-5-[2-(quinolin-2-yl)ethyl]thieno[2,3-d]pyridazin-4(5H)-one]: the half-inhibitory concentration (IC50) is under 100 nM.

With `COc1cccc(-c2csc3cnn(CCc4ccc5ccccc5n4)c(=O)c23)c1` [Example 26, 3-(3-methoxyphenyl)-5-[2-(quinolin-2-yl)ethyl]thieno[2,3-d]pyridazin-4(5H)-one], the concentration for half-maximal inhibition (IC50) lay in the range of 200 to 500 nM.

As for `N#Cc1cccc(-c2csc3cnn(CCc4ccc5ccccc5n4)c(=O)c23)c1` [Example 29, 3-[4-Oxo-5-(2-quinolin-2-yl-ethyl)-4,5-dihydro-thieno[2,3-d]pyridazin-3-yl}-benzonitrile], the half-inhibitory concentration (IC50) was under 100 nM.

Regarding `O=c1c2c(-c3cccc(F)c3)csc2cnn1CCc1ccc2ccccc2n1` [Example 30, 3-(3-fluorophenyl)-5-[2-(quinolin-2-yl)ethyl]thieno[2,3-d]pyridazin-4(5H)-one], the IC50 lay within 100 to 200 nM.

With `O=c1c2c(-c3cccc(O)c3)csc2cnn1CCc1ccc2ccccc2n1` [Example 31, 3-(3-hydroxyphenyl)-5-[2-(quinolin-2-yl)ethyl]thieno[2,3-d]pyridazin-4(5H)-one], the IC50 lay in the range of 100 to 200 nM.

`CN(C)C(=O)c1cccc(-c2csc3cnn(CCc4ccc5ccccc5n4)c(=O)c23)c1` [Example 32, N,N-dimethyl-3-{4-oxo-5-[2-(quinolin-2-yl)ethyl]-4,5-dihydrothieno[2,3-d]pyridazin-3-yl}benzamide]: the IC50 was 200 to 500 nM.

In the case of `O=c1c2c(-c3cccs3)csc2cnn1CCc1ccc2ccccc2n1` [Example 34, 5-[2-(quinolin-2-yl)ethyl]-3-(thiophen-2-yl)thieno[2,3-d]pyridazin-4(5H)-one], the concentration for half-maximal inhibition (IC50) is 100 to 200 nM.

As for `O=c1c2c(-c3ccc4cc[nH]c4c3)csc2cnn1CCc1ccc2ccccc2n1` [Example 36, 3-(1H-indol-6-yl)-5-[2-(quinolin-2-yl)ethyl]thieno[2,3-d]pyridazin-4(5H)-one], the IC50 is under 100 nM.

Take `O=c1c2c(-c3cncnc3)csc2cnn1CCc1ccc2ccccc2n1` [Example 37, 3-(pyrimidin-5-yl)-5-[2-(quinolin-2-yl)ethyl]thieno[2,3-d]pyridazin-4(5H)-one]: the IC50 is under 100 nM.

The values are drawn from US20130116241A1, “NOVEL INHIBITOR COMPOUNDS OF PHOSPHODIESTERASE TYPE 10A” (AbbVie Inc., priority 2011, published 2013).
